pIC50: −log10 of the molar value. Residues, ends and D or L forms follow the SMILES beside them.
Experiments:
PKMζ [1] = target: T1, PKMζ (Homo sapiens, UniProt Q05513); assay: Inhibition of PKMζ (IC50); assay type: biochemical
T1 construct: made in house; host or cells: Spodoptera frugiperda Sf9 cells, baculovirus
T1 sequence (Q05513 1-409 isoform Q05513-2): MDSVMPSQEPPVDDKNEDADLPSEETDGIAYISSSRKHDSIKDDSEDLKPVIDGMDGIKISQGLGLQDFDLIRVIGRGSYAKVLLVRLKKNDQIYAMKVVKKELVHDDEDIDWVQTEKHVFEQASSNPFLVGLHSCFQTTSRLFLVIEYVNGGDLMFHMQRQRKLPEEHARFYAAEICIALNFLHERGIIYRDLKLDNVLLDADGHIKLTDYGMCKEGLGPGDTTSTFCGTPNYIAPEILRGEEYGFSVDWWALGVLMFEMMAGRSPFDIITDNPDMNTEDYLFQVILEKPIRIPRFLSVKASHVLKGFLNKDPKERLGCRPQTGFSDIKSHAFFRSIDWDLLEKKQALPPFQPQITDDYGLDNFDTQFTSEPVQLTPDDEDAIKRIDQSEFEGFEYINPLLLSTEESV

PKC gamma = PKC gamma (Homo sapiens, UniProt P05129); assay: Inhibition of PKC gamma (IC50); assay type: biochemical
LTP maintenance = assay: Reversal of LTP maintenance; assay type: cell-based; conditions: 1 μM
[2] = tested on: AMPA/kainate EPSCs in CA1 pyramidal cells; assay: Intracellular perfusion of PKMζ into CA1 pyramidal cells, whole-cell recording of evoked EPSCs; assay type: cell-based, Sprague-Dawley rats
Experimental: PKMζ, purified from a baculovirus/Sf9 expression system to near homogeneity, was perfused into a CA1 pyramidal cell through a whole cell recording pipette (FIGS. 1A-1B). […] In order to isolate AMPA/kainate responses, the cell, recorded at the soma, was voltage-clamped at the IPSC reversal potential (˜−70) and Cs-gluconate-based electrode solution was used (to block GABAB effects). […] Over 5-10 min, there was ˜60% increase in AMPA/kainate EPSCs, which then stabilized. In contrast, inactivated PKMζ had no effect.
Hippocampal slices were prepared from Sprague-Dawley rats as described in Example 2. Patch electrodes were pulled (two-stage) from […] O.D. borosilicate glass (World Precision Instruments, Sarasota, Fla.) on a Narishige PP-83 vertical puller. Recording pipettes had tip resistances of 2-5 MΩ and contain (in mM): Cs-gluconate or K-gluconate 130-; MgCl2, 2; CaCl2, 2; EGTA, 10; HEPES, 10; Na-ATP, 2; pH adjusted to 7.25 with either CsOH or KOH. […] Cesium was used to block potassium currents, including slow GABAB IPSCs. Electrode solutions included QX-314 (10 mM) to block […] currents to prevent cell spike discharges at depolarized holding potentials. Whole-cell recordings were obtained from CA1 pyramidal cells using blind patch techniques. The recording pipette was slowly advanced through the tissue, with brief voltage steps (−10 mV, 10 ms) applied to monitor electrode resistance. Once a deflection in the electrode's current response was detected signifying contact with the membrane of the target cell soma, slight negative pressure was applied to form a cell-electrode seal of >1 GΩ.
Membrane breakthrough was accomplished with either additional suction or current pulses. […] Signals were recorded under voltage-clamp with an Axoclamp 2A amplifier (Axon Instruments, Foster City, Calif.). Resting input resistance was measured from the current response to a −10 mV voltage step from holding potential. […]
The effects of PKMζ cell injection on excitatory synaptic currents were assessed by including the kinase in the whole-cell pipette and measuring EPSC amplitude over time. […]

PKMζ [3] = target: T1, PKMζ; assay: Inhibition of phosphorylation of exogenous substrates by various protein kinases (specificity of chelerythrine); assay type: biochemical; conditions: versus PKC alpha, PKC epsilon (MBP substrate), CaM-kinase II (Syntide)
Excerpt: PKCA is PKC alpha phosphorylation of myelin basic protein (MBP). PKCE is PKC epsilon phosphorylation of MBP. PKM is PKMζ phosphorylation of MBP. CKII is Ca^2+-calmodulin-dependent protein kinase II phosphorylation of Syntide® (Calbiochem, San Diego, Calif.) peptide substrate.

For `CCCCCCCCCCCCCC(=O)N[C@@H](CO)C(=O)N[C@H](C(=O)N[C@@H](Cc1ccc(O)cc1)C(=O)N[C@@H](CCCNC(=N)N)C(=O)N[C@@H](CCCNC(=N)N)C(=O)NCC(=O)N[C@@H](C)C(=O)N[C@@H](CCCNC(=N)N)C(=O)N[C@@H](CCCNC(=N)N)C(=O)N[C@@H](Cc1c[nH]c2ccccc12)C(=O)N[C@@H](CCCNC(=N)N)C(=O)N[C@@H](CCCCN)C(=O)N[C@@H](CC(C)C)C(=O)O)[C@@H](C)CC` [MZIP, myr-Ser-Ile-Tyr-Arg-Arg-Gly-Ala-Arg-Arg-Trp-Arg-Lys-Leu-OH] (HELM PEPTIDE1{[CCCCCCCCCCCCCC(=O)[*:2]].S.I.Y.R.R.G.A.R.R.W.R.K.L}$$$$V2.0), the pIC50 (PKMζ [1]) was 7.00 to 8.00, the pIC50 (PKC gamma) was 5.00 and the “effect on LTP maintenance” value (LTP maintenance) was “reverses LTP maintenance”.

With `COc1ccc2c(c[n+](C)c3c4cc5c(cc4ccc23)OCO5)c1OC` [chelerythrine] the “reversal of PKMζ-induced increases in synaptically evoked AMPA/kainate responses” value ([2]; 3 nM PKM in pipette, chelerythrine 1 uM in bath) was “reversible” and the “selectivity as an inhibitor of PKM activity relative to other protein kinases” value (PKMζ [3]) was “greater than 10 fold”.

With “PKMζ: independent catalytic domain of the PKCζ isoform, purified from a baculovirus/Sf9 expression system” the “increase in AMPA/kainate EPSCs” value ([2]; about 0.8 nM PKMζ in whole cell pipette, over 5-10 min, then stabilized, voltage-clamped ~-70) was ~60% and the “potency in potentiation of AMPA/kainate currents relative to CaM-kinase II” value ([2]; compared with reported concentration of autoactive thiophosphorylated CaM-kinase II) was 200- to 1000 fold.

From patent US7605119B2, “Memory enhancing protein method” (The Research Foundation of State University of New York, priority 2000, dated 2009)
